This assay has as its target T1, ULK1 kinase (Homo sapiens, UniProt O75385).
T1 construct: purchased Eurofins 14-959
T1 sequence (O75385 with tags, fused parts or gaps): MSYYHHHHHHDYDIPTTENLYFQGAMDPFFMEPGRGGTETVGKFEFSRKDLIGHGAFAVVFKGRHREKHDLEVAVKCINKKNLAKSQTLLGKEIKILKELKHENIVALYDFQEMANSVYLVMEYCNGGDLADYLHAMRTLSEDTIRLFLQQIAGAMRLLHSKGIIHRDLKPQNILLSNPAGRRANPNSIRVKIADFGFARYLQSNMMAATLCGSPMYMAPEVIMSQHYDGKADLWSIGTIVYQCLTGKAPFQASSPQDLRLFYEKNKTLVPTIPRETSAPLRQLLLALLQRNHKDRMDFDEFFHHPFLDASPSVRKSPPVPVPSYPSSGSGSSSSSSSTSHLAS
The experiment in a line: Biochemical assay for ULK1.2 (coupled pyruvate kinase/lactate dehydrogenase assay). To be noted: 19 nM ULK1 (Eurofins), myelin basic protein, 1 mM ATP. The protocol: Example 174. Biochemical Assay for ULK1.2
Activity of ULK1 kinase was determined spectroscopically using a coupled pyruvate kinase/lactate dehydrogenase assay that continuously monitors the ATP hydrolysis-dependent oxidation of NADH (e.g., Schindler et al. Science (2000) 289: 1938-1942). Assays were conducted in 384-well plates (100 uL final volume) using 19 nM ULK1 (Eurofins CAT #14-959), 0.25 mg/mL myelin basic protein, 1.5 units pyruvate kinase, 2.1 units lactate dehydrogenase, 1 mM phosphoenol pyruvate, 0.28 mM NADH and 1 mM ATP in assay buffer (100 mM Tris, pH 7.5, 15 mM MgCl2, 0.5 mM DTT, 0.1% octyl-glucoside, 0.002% (w/v) BSA, and 0.002% Triton X-100). Inhibition of ULK1 was measured by adding serial diluted test compound (final assay concentration of 1% DMSO). A decrease in absorption at 340 nm was monitored continuously for 6 hours at 30° C. on a multi-mode microplate reader (BioTek). The reaction rate was calculated using the 2-3 h time frame. The reaction rate at each concentration of compound was converted to percent inhibition using controls (i.e. reaction with no test compound and reaction with a known inhibitor) and IC50 values were calculated by fitting a four-parameter sigmoidal curve to the data using Prism (GraphPad software).

`CC(C)N1CCC(n2cc(Nc3ncc(Cl)c(NCCCN4CCCCC4=O)n3)cn2)CC1` [Example 5]: the IC50 lay within 0.025 to 0.1 µM.
Then `CN1CCC(n2cc(Nc3ncc(C(F)(F)F)c(NCCCN4CCCCC4=O)n3)cn2)CC1` [Example 10], with 0.001 to 0.025 µM; and `CC(C)CN1CC(n2cc(Nc3ncc(Cl)c(NCCCN4CCCCC4=O)n3)cn2)C1` [Example 11], with 0.1 to 0.5 µM; and `Cc1nn(C2CCN(CC3CC3)CC2)cc1Nc1ncc(C(F)(F)F)c(NCCCN2CCCCC2=O)n1` [Example 19], with 0.001 to 0.025 µM.
As to `Cc1nn(CCN2CCCCC2)cc1Nc1ncc(C(F)(F)F)c(NCCCN2CCCCC2=O)n1` [Example 22], the IC50 lay in the range of 0.1 to 0.5 µM.
With `Cc1nn([C@@H]2CCN(C)C2)cc1Nc1ncc(Cl)c(NCCCN2CCCCC2=O)n1` [Example 24], the IC50 lay within 0.1 to 0.5 µM.
`Cc1nn(CCCN2CCCCC2)cc1Nc1ncc(C(F)(F)F)c(NCCCN2CCCCC2=O)n1` [Example 28] displayed an IC50 of 0.025 to 0.1 µM.
In turn, `Cc1nn(CCCN2CCOCC2)cc1Nc1ncc(C(F)(F)F)c(NCCCN2CCCCC2=O)n1` [Example 30] registered an IC50 of 0.1 to 0.5 µM.
Then `Cc1nn([C@@H]2CCNC2)cc1Nc1ncc(C(F)(F)F)c(NCCCN2CCCCC2=O)n1` [Example 34], with 0.001 to 0.025 µM; and `Cc1nn(CCCN(C)C)cc1Nc1ncc(C(F)(F)F)c(NCCCN2CCCCC2=O)n1` [Example 35], with 0.025 to 0.1 µM.
Then `Cc1nn([C@@H]2CCN(C(C)C)C2)cc1Nc1ncc(C(F)(F)F)c(NCCCN2CCCCC2=O)n1` [Example 36], with 0.025 to 0.1 µM; and `CCN1CCC(n2cc(Nc3ncc(C(F)(F)F)c(NCCCN4CCCCC4=O)n3)c(C)n2)CC1` [Example 37], with 0.001 to 0.025 µM; and `CCc1nn(C2CCN(CC)CC2)cc1Nc1ncc(C(F)(F)F)c(NCCCN2CCCCC2=O)n1` [Example 42], with 0.025 to 0.1 µM.
As to `CCc1nn(C2CCN(C(C)C)CC2)cc1Nc1ncc(C(F)(F)F)c(NCCCN2CCCCC2=O)n1` [Example 43], the IC50 fell in the range of 0.025 to 0.1 µM.
Turning to `CCc1nn(C2CCN(CC)CC2)cc1Nc1ncc(Cl)c(NCCCN2CCCCC2=O)n1` [Example 46], the IC50 was in the range of 0.1 to 0.5 µM.
Then `CCc1nn(C2CCN(C)CC2)cc1Nc1ncc(C(F)(F)F)c(NCCCN2CCCCC2=O)n1` [Example 47], with 0.001 to 0.025 µM.
Turning to `[2H]C([2H])([2H])N1CCC(n2cc(Nc3ncc(Br)c(NCCCN4CCCCC4=O)n3)c(C)n2)CC1` [Example 49], the IC50 lay in the range of 0.001 to 0.025 µM.
The compound `CCN1CCC(n2cc(Nc3ncc(Br)c(NCCCN4CCCCC4=O)n3)c(C)n2)CC1` [Example 50] displayed a 50% inhibitory concentration (IC50) of 0.025 to 0.1 µM.
Then `[2H]C([2H])([2H])N1CCC(n2cc(Nc3ncc(C(F)(F)F)c(NCCCN4CCCCC4=O)n3)c(CC)n2)CC1` [Example 52], with 0.001 to 0.025 µM; and `CCc1nn(C2CCN(C)CC2)cc1Nc1ncc(Cl)c(NCCCN2CCCCC2=O)n1` [Example 55], with 0.1 to 0.5 µM.
Then `[2H]C([2H])([2H])N1CCC(n2cc(Nc3ncc(Cl)c(NCCCN4CCCCC4=O)n3)c(C)n2)CC1` [Example 57], with 0.1 to 0.5 µM; and `Cc1nn(C2CCN(CCF)CC2)cc1Nc1ncc(C(F)(F)F)c(NCCCN2CCCCC2=O)n1` [Example 59], with 0.025 to 0.1 µM.
The value for `Cc1nn(CCN2CCOCC2)cc1Nc1ncc(Br)c(NCCCN2CCCCC2=O)n1` [Example 63] was above 0.5 µM.
`Cc1nn([C@H]2CCNC2)cc1Nc1ncc(C(F)(F)F)c(NCCCN2CCCCC2=O)n1` [Example 65] came in with an IC50 of 0.001 to 0.025 µM.
Compound `CCc1nn(C2CCN(C(C)C)CC2)cc1Nc1ncc(C(F)(F)F)c(NCCCN2CCCOC2=O)n1` [Example 70] returned a half-maximal inhibitory concentration (IC50) of 0.025 to 0.1 µM.
Consider `CCN1CCC(n2cc(Nc3ncc(C(F)(F)F)c(NCCCN4CCCC4=O)n3)c(C)n2)CC1` [Example 82], for which the IC50 fell in the range of 0.1 to 0.5 µM.
`Cc1nn(C2CCN(C(C)C)CC2)cc1Nc1ncc(C(F)(F)F)c(NCCCN2CCCCCC2=O)n1` [Example 85] came in with an IC50 of 0.001 to 0.025 µM.
On to `Cc1nn(C2CCN(C(C)C)CC2)cc1Nc1ncc(Cl)c(NCCCN2CCCCCC2=O)n1` [Example 87], for which the IC50 lay in the range of 0.025 to 0.1 µM.

As usually defined, the IC50 is the point on the concentration scale where inhibition reaches its midpoint. A lower IC50 goes with greater potency.

The record behind these values is patent publication US11518758B2, “Heteroarylaminopyrimidine amide autophagy inhibitors and methods of use thereof” (Deciphera Pharmaceuticals, LLC, priority 2019, dated 2022).
